Patent publication US6423689B1, “Peptidyl calcium channel blockers” (Warner-Lambert Company, priority 1997, dated 2002)
Read-outs that look alike come from different tables or passages of the source.

Assays:
DBA/2 mice = assay: animal or person; format: in vivo; conditions: for responders at 10 mg/kg / responders at 30 mg/kg / responders at 100 mg/kg: Mus musculus, iv, read-out: Number of Mice Protected from Tonic Convulsions
Description: Audiogenic Seizure Model in DBA/2 Mice
In Vivo Biological Protocol
A compound of the present invention was dissolved in water using 10% (weight/volume) Emulphor (GAF Cop., Wayne N.J. surfactant. Substances were administered by intravenous injection the retro-orbital venous sinus. […] All the male mice, 3-4 weeks old were obtained from Jackson Laboratories Bar Harbour, Me. Immediately before anticonvulsant testing, mice were placed upon a wire mesh, 4 inches square suspended from a steel rod. The square was slowly inverted through 180 degree and mice observed for 30 seconds. Any mouse falling from the wire mesh was scored as ataxia.
Mice were placed into an enclosed acrylic plastic chamber (21 cm in height, approximately 30 cm diameter) with a high-frequency speaker (4 cm diameter) in the center of the top lid. An audio signal generator (Protek model B-810) was used to produce a continuous sinusoidal tone that was swept linearly in frequency between 8 kHz and 16 kHz once each 10 msec. The average sound pressure level (SPL) during stimulation was approximately 100 dB at the floor of the chamber. Mice were placed within the chamber and allowed to acclimatize for 1 minute. DBA/2 mice in the vehicle-treated group responded to the sound stimulus (applied until tonic extension occurred, or for a maximum of 60 sec) with a characteristic seizure sequence consisting of wild running followed by clonic seizures, and later by tonic extension, and finally by respiratory arrest and death in 80% or more of the mice. In vehicle-treated mice, the entire sequence of seizures to respiratory arrest lasts approximately 15-20 seconds.
The incidence of all the seizure phases in the drug-treated and vehicle-treated mice was recorded, and the occurrence of tonic seizures were used for calculating anticonvulsant ED50 values by probit analysis. Mice were used only once for testing at each time and dose point.

[1] = target: T1, N-type Ca2+ channels in IMR-32 cells (Homo sapiens, UniProt Q00975); assay: Inhibition of N-type calcium flux in IMR-32 cells (Indo-1 fluorescence, nitrendipine present); format: cell-based; conditions: for IC50: IMR-32 cells, 5 μM nitrendipine, K+ depolarization; for inhibition at 1 µM / inhibition at 10 µM: IMR-32
T1 construct: host or cells: IMR-32 cells, differentiated with dibutyryl cAMP and bromodeoxyuridine
Outline: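 With L-type flux blocked by 5 μM nitrendipine, N-type Ca2+ entry was read as the Indo-1 emission ratio (400/490 nm, excitation 350 nm) at 30° C after KCl depolarization.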

T1 sequence (Q00975 whole entry): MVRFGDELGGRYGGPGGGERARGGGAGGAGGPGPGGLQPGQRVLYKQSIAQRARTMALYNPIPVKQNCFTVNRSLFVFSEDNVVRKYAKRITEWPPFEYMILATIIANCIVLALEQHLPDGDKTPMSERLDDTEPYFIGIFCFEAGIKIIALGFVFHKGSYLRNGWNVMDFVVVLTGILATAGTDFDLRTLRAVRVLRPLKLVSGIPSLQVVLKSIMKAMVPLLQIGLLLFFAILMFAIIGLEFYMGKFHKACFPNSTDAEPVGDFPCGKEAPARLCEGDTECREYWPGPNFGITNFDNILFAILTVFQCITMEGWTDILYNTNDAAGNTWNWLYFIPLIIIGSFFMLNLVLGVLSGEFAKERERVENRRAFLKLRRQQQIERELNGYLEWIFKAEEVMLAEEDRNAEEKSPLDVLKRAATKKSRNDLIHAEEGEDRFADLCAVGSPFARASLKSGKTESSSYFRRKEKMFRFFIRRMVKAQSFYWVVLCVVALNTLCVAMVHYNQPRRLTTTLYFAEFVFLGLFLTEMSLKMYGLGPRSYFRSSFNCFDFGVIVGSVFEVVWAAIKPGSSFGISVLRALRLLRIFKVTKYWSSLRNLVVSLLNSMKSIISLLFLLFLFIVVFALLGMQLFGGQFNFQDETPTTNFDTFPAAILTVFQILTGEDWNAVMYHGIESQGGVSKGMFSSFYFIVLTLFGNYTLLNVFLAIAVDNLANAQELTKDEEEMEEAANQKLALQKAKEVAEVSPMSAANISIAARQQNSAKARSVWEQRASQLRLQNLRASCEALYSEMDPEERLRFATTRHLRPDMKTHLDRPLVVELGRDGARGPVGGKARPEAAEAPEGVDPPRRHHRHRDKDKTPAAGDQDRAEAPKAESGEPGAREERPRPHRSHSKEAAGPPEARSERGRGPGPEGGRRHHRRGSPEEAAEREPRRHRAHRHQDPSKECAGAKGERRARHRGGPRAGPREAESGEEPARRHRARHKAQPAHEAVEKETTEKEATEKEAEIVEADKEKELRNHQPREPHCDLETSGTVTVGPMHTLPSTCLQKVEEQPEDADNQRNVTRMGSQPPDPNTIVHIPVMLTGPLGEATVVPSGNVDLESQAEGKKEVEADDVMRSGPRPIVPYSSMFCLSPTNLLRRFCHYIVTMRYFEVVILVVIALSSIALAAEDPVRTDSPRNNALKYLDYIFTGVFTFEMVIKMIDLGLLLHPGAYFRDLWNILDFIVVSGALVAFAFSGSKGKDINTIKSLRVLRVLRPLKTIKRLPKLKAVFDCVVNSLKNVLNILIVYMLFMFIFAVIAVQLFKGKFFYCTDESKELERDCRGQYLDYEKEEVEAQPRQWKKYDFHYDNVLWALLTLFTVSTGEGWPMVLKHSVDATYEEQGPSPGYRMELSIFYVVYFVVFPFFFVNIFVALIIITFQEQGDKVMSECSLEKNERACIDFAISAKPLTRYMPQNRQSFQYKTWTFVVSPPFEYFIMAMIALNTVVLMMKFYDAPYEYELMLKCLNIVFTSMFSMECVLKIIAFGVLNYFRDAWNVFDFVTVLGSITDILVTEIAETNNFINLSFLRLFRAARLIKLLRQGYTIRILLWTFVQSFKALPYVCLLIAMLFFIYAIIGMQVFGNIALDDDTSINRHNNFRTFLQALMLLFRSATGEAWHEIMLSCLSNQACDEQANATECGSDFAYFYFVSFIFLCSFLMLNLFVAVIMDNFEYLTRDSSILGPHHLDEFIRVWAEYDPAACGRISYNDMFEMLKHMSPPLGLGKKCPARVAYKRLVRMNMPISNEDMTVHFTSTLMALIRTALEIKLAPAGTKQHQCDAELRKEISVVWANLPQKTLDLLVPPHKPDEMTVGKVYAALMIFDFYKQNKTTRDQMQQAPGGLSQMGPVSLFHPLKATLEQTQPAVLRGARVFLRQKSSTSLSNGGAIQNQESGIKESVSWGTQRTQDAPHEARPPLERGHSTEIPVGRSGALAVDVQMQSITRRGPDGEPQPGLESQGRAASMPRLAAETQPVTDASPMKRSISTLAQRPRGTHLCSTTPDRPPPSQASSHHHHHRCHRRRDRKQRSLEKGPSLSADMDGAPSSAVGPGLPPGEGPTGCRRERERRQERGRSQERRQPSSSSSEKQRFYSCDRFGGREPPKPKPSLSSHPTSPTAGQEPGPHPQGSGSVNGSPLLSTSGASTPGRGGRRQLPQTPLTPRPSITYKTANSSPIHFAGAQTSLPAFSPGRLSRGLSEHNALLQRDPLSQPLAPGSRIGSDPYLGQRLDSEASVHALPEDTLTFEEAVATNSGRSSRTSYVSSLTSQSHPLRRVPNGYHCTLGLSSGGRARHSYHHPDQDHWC
T1 sequence (P54289 25-956 partner limits assumed): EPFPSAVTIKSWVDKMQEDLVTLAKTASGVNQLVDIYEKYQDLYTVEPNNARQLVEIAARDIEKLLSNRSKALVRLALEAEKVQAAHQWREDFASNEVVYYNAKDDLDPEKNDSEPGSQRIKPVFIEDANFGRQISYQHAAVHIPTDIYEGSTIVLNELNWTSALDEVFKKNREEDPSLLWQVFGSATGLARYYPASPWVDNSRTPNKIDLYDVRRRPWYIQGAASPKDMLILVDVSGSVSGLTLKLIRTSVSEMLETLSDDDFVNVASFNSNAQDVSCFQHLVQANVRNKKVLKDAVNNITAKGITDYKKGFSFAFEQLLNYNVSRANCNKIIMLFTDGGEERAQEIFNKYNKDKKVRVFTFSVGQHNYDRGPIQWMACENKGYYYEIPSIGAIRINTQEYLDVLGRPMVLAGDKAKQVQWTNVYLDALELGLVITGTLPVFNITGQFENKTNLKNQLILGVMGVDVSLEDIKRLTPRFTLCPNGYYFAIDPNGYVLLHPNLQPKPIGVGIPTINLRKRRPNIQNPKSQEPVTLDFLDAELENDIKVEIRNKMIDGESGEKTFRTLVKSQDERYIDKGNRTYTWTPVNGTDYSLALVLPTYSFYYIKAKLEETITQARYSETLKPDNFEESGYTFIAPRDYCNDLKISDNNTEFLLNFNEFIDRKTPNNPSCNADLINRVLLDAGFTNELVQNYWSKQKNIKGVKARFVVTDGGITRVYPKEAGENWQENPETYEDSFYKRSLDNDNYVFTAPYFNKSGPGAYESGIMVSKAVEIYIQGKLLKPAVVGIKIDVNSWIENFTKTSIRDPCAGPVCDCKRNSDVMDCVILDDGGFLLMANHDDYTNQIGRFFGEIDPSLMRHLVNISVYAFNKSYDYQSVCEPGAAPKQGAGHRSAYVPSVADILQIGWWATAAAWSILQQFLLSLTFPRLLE
T1 sequence (P54289 957-1103 partner limits assumed): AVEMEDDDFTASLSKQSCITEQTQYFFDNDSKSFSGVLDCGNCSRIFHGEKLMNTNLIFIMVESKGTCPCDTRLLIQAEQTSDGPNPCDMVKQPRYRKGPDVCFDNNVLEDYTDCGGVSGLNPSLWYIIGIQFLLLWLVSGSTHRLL
T1 sequence (P54284 whole entry partner): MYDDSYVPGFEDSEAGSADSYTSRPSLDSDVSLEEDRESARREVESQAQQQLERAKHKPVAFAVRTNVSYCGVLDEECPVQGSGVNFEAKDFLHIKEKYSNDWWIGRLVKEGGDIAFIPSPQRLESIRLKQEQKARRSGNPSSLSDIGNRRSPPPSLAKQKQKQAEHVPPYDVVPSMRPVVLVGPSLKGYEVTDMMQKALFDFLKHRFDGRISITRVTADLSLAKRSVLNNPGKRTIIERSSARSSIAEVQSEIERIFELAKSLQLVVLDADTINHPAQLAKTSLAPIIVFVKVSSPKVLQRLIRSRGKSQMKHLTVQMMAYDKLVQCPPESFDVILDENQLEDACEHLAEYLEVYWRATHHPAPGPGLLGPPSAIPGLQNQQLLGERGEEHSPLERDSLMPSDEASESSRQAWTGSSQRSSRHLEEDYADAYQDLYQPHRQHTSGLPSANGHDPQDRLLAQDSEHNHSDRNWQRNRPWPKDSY

Compound	IC50 [1]	responders at 30 mg/kg (DBA/2 mice; 0.25 h)	inhibition at 1 µM [1]	inhibition at 10 µM [1]	also measured
CC(C)(C)OC(=O)[C@H](Cc1ccc(OCc2ccccc2)cc1)NC(=O)CNC(=O)N1CCCCCC1 (stereo in doubt) [Example 8, [S-(R*,R*)]-2-{2-[(Azepane-1-carbonyl)-amino]-acetylamino}-3-(4-benzyloxy-phenyl)-propionic acid tert-butyl ester]	2.4 µM				Number of Mice Protected from Tonic Convulsions (DBA/2 mice; 30 mg/Kg iv, 15 min post treatment): 4/5; Inhibition of Calcium Flux in IMR-32 Cells % Inhibition at 1 μM ([1]; 1 μM): 29%; Inhibition of Calcium Flux in IMR-32 Cells % Inhibition at 10 μM ([1]; 10 μM): 86%
CC(C)C[C@H](NC(=O)N1CCCCCC1)C(=O)N[C@@H](Cc1ccc(OCc2ccccc2)cc1)C(=O)OC(C)(C)C [Example 1]	0.35 µM	100%	71%	95%	responders at 10 mg/kg (DBA/2 mice; 0.25 h): 0%; responders at 100 mg/kg (DBA/2 mice; 0.25 h): 100%; responders at 100 mg/kg (DBA/2 mice; 0.5 h): 100%; responders at 10 mg/kg (DBA/2 mice; 0.75 h): 0%; responders at 100 mg/kg (DBA/2 mice; 1 h): 0%
CC(C)(C)OC(=O)[C@H](Cc1ccc(OCc2ccccc2)cc1)NC(=O)[C@H](Cc1ccccc1)NC(=O)N1CCCCCC1 [Example 16]	1.1 µM		44%	92%	
CC(C)C[C@H](NC(=O)N1CCCCCC1)C(=O)N[C@@H](Cc1ccc(OCc2ccccc2)cc1)C(N)=O [Example 21, [S-(R*,R*)]-Azepane-1-carboxylic acid {1-[2-(4-benzyloxy-phenyl)-1-carbamoyl-ethylcarbamoyl]-3-methyl-butyl}-amide]	2.7 µM		26%	83%	responders at 30 mg/kg (DBA/2 mice; 0.75 h): 0%
CC(C)C[C@H](NC(=O)N1CCCCCC1)C(=O)N[C@@H](Cc1ccc(OCc2ccccn2)cc1)C(=O)OC(C)(C)C [Example 25, [S-(R*,R*)]-2-{2-[(Azepane-1-carbonyl)-amino]-4-methyl-pentanoylamino}-3-[4-(pyridin-2-ylmethoxy)-phenyl]-propionic acid tert-butyl ester]	2.09 µM	100%	32%	82%	
CC(C)C[C@H](NC(=O)N1CCCCCC1)C(=O)N[C@@H](Cc1ccc(OCc2ccncc2)cc1)C(=O)OC(C)(C)C [Example 26, [S-(R*,R*)]-2-{2-[(Azepane-1-carbonyl)-amino]-4-methyl-pentanoylamino}-3-[4-(pyridin-4-ylmethoxy)-phenyl]-propionic acid tert-butyl ester]	1.6 µM		44%	84%	responders at 10 mg/kg (DBA/2 mice; 0.25 h): 100%
CC(C)C[C@H](NC(=O)N1CCCCCC1)C(=O)N[C@@H](Cc1ccc(C#CC2(O)CCCCC2)cc1)C(=O)NC(C)(C)C [Example 138, [S-(R*,R*)]-Azepane-1-carboxylic acid (1-({-tert-butylcarbamoyl-2-[4-(1-hydroxy-cyclohexylethynyl)-phenyl]-ethylcarbamoyl}-3-methyl-butyl)-amide]			23%	67%	
CC(C)C[C@H](NC(=O)N1CCCCCC1)C(=O)N[C@@H](Cc1ccc(C=Cc2ccccc2)cc1)C(=O)NC(C)(C)C [Example 141, [S-(R*,R*)]-Azepane-1-carboxylic acid {1-[1-tert-butylcarbamoyl-2-(4-styryl-phenyl)-ethylcarbamoyl]-3-methyl-butyl}-amide]			37%	66%	
CC(C)C[C@H](NC(=O)N1CCCCCC1)C(=O)N[C@@H](Cc1ccc(OCc2ccccc2)cc1)C(=O)NCCCn1ccnc1 [Example 237, [S-(R*,R*)]-Azepane-1-carboxylic acid {(1-[2-(4-benzyloxy phenyl)-1-(3-imidazol-1-yl-propylcarbamoyl)-ethylcarbamoyl]-3-methyl-butyl}-amide]	0.96 µM	0%	52%	93%	
